Experiment: xn = mol fraction of the nth substance listed
Conditions: 86 kPa, x2 = 0.5

In the case of `O=C(O)COCC(=O)O` + CCCC[N+](CCCC)(CCCC)CCCC.O=S(=O)([O-])O, the electrical conductivity (293.15 K) is reported as 0.0002 S/m, the speed of sound (293.15 K) is reported as 1820.2 m/s and the electrical conductivity (298.15 K) is reported as 0.0004 S/m. For the same compound, the speed of sound (298.15 K) was 1770.7 m/s, the electrical conductivity (303.15 K) was 0.0007 S/m and the speed of sound (303.15 K) was 1720.3 m/s. For the same compound, the viscosity (303.15 K) was 38300 mPa·s, the electrical conductivity (308.15 K) was 0.0013 S/m and the speed of sound (308.15 K) was 1690.7 m/s. The viscosity (308.15 K) was 21200 mPa·s, the electrical conductivity (313.15 K) was 0.0022 S/m and the speed of sound (313.15 K) was 1661.5 m/s. For the same compound, the viscosity (313.15 K) was 12020 mPa·s, the electrical conductivity (318.15 K) was 0.0035 S/m and the speed of sound (318.15 K) was 1630.3 m/s. The viscosity (318.15 K) was 7750 mPa·s, the electrical conductivity (323.15 K) was 0.0054 S/m and the speed of sound (323.15 K) was 1603.6 m/s. The viscosity (323.15 K) was 5450 mPa·s, the electrical conductivity (328.15 K) was 0.0081 S/m and the speed of sound (328.15 K) was 1581 m/s. It also gave a viscosity (328.15 K) of 3520 mPa·s, an electrical conductivity (333.15 K) of 0.0117 S/m and a speed of sound (333.15 K) of 1560.2 m/s. The viscosity (333.15 K) was 2500 mPa·s, the viscosity (338.15 K) was 1750 mPa·s and the viscosity (343.15 K) was 1250 mPa·s.
